Reference: patent US20150150878A1, “Methods For Inhibiting Viruses By Targeting Cathepsin-L Cleavage Sites In The Viruses' Glycoproteins” (priority 2012, published 2015)
“And” between values parts separate entries of the source, which are not always exact repeats. Equal values may be shown once. Where a name gives a salt, the structure may show the parent alone. Read-outs that look alike come from different tables or passages of the source. Residues, ends and D or L forms follow the SMILES beside them. *: point of attachment. Cbz = O=C(OCc1ccccc1)*

Experiments:
[1] = test system: EBOV-GP pseudotyped virus; experiment: microbe, parasite or virus in culture; format: cell-based, Ebola virus; conditions: for IC50: read-out: IC50 against EBOV pseudotyped virus; for inhibition at 10 µM: read-out: inhibition of EBOV pseudotyped virus entry
[2] = test system: SARS-CoV-S pseudotyped virus; experiment: microbe, parasite or virus in culture; format: cell-based; conditions: for IC50: read-out: IC50 against SARS-CoV-S pseudotyped virus; for inhibition at 10 µM: read-out: inhibition of SARS-CoV pseudotyped virus entry
[3] = target: T1, cathepsin L (Homo sapiens, UniProt P07711); format: biochemical
T1 sequence (P07711 114-333): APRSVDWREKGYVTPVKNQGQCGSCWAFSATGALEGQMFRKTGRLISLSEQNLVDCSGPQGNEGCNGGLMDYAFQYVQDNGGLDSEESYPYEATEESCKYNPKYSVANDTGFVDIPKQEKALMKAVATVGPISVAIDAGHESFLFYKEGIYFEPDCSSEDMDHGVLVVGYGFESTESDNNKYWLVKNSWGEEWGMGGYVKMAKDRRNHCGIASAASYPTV

[4] = test system: 293FT cells
[5] = test system: SARS-CoV pseudotyped virus; format: cell-based
[6] = target: T1, cathepsin L; format: biochemical; remark: listed apart in the source
[7] = target: T1, cathepsin L; format: biochemical; set-up: human cathepsin L purified from human liver (Sigma Aldrich); purchased Sigma Aldrich; host or cells: human liver (tissue-purified)
[8] = target: T1, cathepsin L; format: biochemical; set-up: human cathepsin L purified from human liver (Sigma Aldrich); purchased Sigma Aldrich; host or cells: human liver (tissue-purified); remark: listed apart in the source
[9] = target: T1, cathepsin L; format: biochemical; set-up: human cathepsin L purified from human liver (Sigma Aldrich); purchased Sigma Aldrich; host or cells: human liver (tissue-purified); remark: listed apart in the source
[10] = target: T1, cathepsin L; format: biochemical; set-up: human cathepsin L purified from human liver (Sigma Aldrich); purchased Sigma Aldrich; host or cells: human liver (tissue-purified); remark: listed apart in the source
[11] = target: T1, cathepsin L; format: biochemical; set-up: human cathepsin L purified from human liver (Sigma Aldrich); purchased Sigma Aldrich; host or cells: human liver (tissue-purified); remark: listed apart in the source
[12] = Severe acute respiratory syndrome coronavirus, 72 h

Structure (SMILES) | inhibition of Cat L mediated cleavage of SARS-CoV-S-flag protein [3] | cytotoxic effect on 293FT cells [4] | inhibition of SARS-CoV pseudotyped virus entry [5] | inhibition at 10 µM ([1]; Zaire ebolavirus, 72 h) [%] | inhibition at 10 µM [2, 12] [%] | Inhibition of cleavage of SARS peptide by Cathepsin-L [7] [%] | percentage inhibition against SARS peptide [7] [%] | Inhibition of cleavage of Ebola peptide by Cathepsin-L [8] [%] | percentage inhibition against Ebola peptide [8] [%] | Inhibition of cleavage of Nipah peptide by Cathepsin-L [9] [%] | percentage inhibition against Nipah peptide [9] [%] | Inhibition of cleavage of Hendra peptide by Cathepsin-L [10] [%] | percentage inhibition against Hendra peptide [10] [%] | Inhibition of cleavage of NPY peptide by Cathepsin-L [11] [%] | percentage inhibition against human Pro-NPY peptide [11] [%] | also measured
CCNc1nc(NC(C)(C)C)nc(N(C#N)CC(=O)OC)n1 [Compound 7402683, methyl 2-(N-(4-(tert-butylamino)-6-(ethylamino)-1,3,5-triazin-2-yl)cyanamido)acetate] | dose dependent inhibition | no significant cytotoxicity | – | – | – | – | – | – | – | – | – | – | – | – | – | inhibition of EBOV pseudotyped virus entry ([1]; 10 µM): 53.3%; IC50 [1]: 10 µM; inhibition of SARS-CoV pseudotyped virus entry ([2]; 10 µM): 68.3%; IC50 [2]: 6 µM
O=C[C@H](Cc1ccc(O)cc1)NC(=O)[C@H](Cc1ccccc1)NC(=O)OCc1ccccc1 [cathepsin L inhibitor, Z-Phe-Tyr-CHO] (Cbz-Phe-Tyr-aldehyde) | – | – | 60% and 58% | – | – | – | – | – | – | – | – | – | – | – | – | –
CN(C)C(=O)COC(=O)Cc1ccc(OC(=O)c2ccc(NC(=N)N)cc2)cc1 [protease inhibitor, Camostat mesylate] | – | – | 70% | – | – | – | – | – | – | – | – | – | – | – | – | –
COC(=O)CN(C#N)c1nc(NC(C)C)nc(NC(C)C)n1 [Compound 5705213, methyl 2-(N-(4,6-bis(isopropylamino)-1,3,5-triazin-2-yl)cyanamido)acetate] | dose dependent inhibition | – | 50% and 60% | 39.8 | 64.7 | 79.8 | 90.1 | 42 | 81.3 | 76.3 | 90.7 | 84.3 | 94.2 | 18 | 20 | IC50 ([1]; Zaire ebolavirus, 72 h): 15 µM; IC50 [2, 12]: 9 µM; change of Vmax in presence of the inhibitor [6]: decrease; mechanism of inhibition [6]: mixed inhibitor; cell viability ([4]; human): over 80%
O=C(Nc1cccc(C(F)(F)F)c1)Nc1ccc(Cl)c(Cl)c1 [Compound 5182554, 1-(3,4-dichlorophenyl)-3-(3-(trifluoromethyl)phenyl)urea] | – | toxic | – | 60.5 | 49.3 | 78.1 | 72.6 | 31 | 77 | 44 | 56.5 | 49.4 | 50.9 | 7.4 | 14.8 | cytotoxicity ([4]; human): 20-100%
